According to US7321027B2, “Small technetium-99m and rhenium labeled agents and methods for imaging tumors” (President and Fellows of Harvard College, priority 2000, dated 2008):
Each block holds one compound with its values, some of them ahead of it.

Experiments:
B16/F0 cells = test: Tumor-cell uptake in the presence of DTG; format: cell-based, murine; settings: 37° C.; for lower tumor-cell uptake after pre-incubation with DTG: DTG 90 μM, 30 min prior; for IC50: read-out: DTG concentration at 50% maximal inhibition of complex uptake, intact B16/F0 cells, DTG as the inhibitor
From the text: J. Labelled Compd. Radiopharm. 1994, 35, 242-244; Vilner, B. J.; John, C. S.; Bowen, W. D. Sigma-I and Sigma-2 Receptors Are Expressed in a Wide Variety of Human and Rodent Tumor Cell Lines. Cancer Res. 1995, 55, 408-413; and John, C. S.; Vilner, B. J.; Gulden, M. E.; Efange, S. M. N.; Langason, R. B.; Moody, T. W.; Bowen, W. D. Synthesis and Pharmacological Characterization of 4-[^125I]-N-(N-Benzylpiperidin-4-yl)-4-iodobenzamide: A High Affinity σ Receptor Ligand for Potential Imaging of Breast Cancer. […] Pre-incubation of the tumor cells with DTG (90 μM), 30 min prior to the uptake experiments with the ^99mTc-complexes, yields a lower tumor-cell uptake for complexes Tc-(Compound A) (29% less), Tc-(Compound C) (33% less), and Tc-(Compound D) (32% less) at 37° C. (FIG. 4). Additional dose-response experiments conducted with intact B16/F0 cells at 37° C. with Tc-(Compound C) and DTG as the inhibitor (FIG. 3) show a DTG concentration-dependent decrease in the uptake of the complex.
The effect of the inhibitor DTG on cell uptake of these complexes was studied by addition of the inhibitor at various concentrations to the cell suspension 30 min prior to addition of the ^99mTc-complexes. Fresh DTG stock solutions were made by dissolving DTG (3.0 mg, 12.5 μmol) in 0.38 mL PBS and 0.12 mL hydrochloric acid (0.1 N) and subjecting the mixture to ultrasound until a clear solution was obtained, followed by the addition of 0.50 mL FBS to produce a neutral solution at pH 7.4. The stock solutions were diluted by an appropriate amount of S-MEM, and aliquots between 5 μL and 25 μL were added to the cell suspension such that the final concentration of DTG was between 0.02 μM and 120 μM in a total cell suspension volume of 350 μL.

[1] = system: MCF-7 human breast cancer cell line; test: In-vitro tumor-cell uptake, breast cancer cells; format: cell-based; settings: 37° C., MCF-7 cell line
Method: (§1) In-Vitro Tumor-Uptake Studies. Tumor-cell uptake studies in B16/F0 murine melanoma cells were performed with complexes Tc-(Compound A-D and H-M) at 37° C. and 4° C. Additionally, tumor-cell uptake of complex Tc-(Compound A) was investigated in another rapidly dividing MCF-7 human breast cancer cell line.
In-Vitro Cell Studies. […] After being washed with 12 mL Dulbecco's Phosphate-Buffered Saline (PBS) (Gibco), pH 7.2 (Ca^2+- and Mg^2+-free; g/L KCl, 0.20; KH2PO4, 0.20; NaCl, 8.00; Na2HPO4, 1.15), the cells were counted and resuspended in 8 mL S-MEM (Gibco) (Ca^2+ free, with reduced Mg^2+ content) and stored at 4° C. until use.
For in-vitro tumor-cell accumulation studies, 5×10^6 cells in polypropylene test tubes were incubated at 37° C. or 4° C., with intermittent agitation with 1-2 μCi (5 μL) ^99mTc-complex Tc-(Compound A-D) in a total volume of 350 μL S-MEM. […] Both fractions were counted for radioactivity in a γ-counter (WALLAC, 1480 WIZARD 3″™). The amount of supernatant in the cell pellet was determined to be <1% in separate experiments. The percentage cell uptake of the ^99mTc-complex was calculated as: % uptake=[cpm(pellet)]/[cpm(pellet)+cpm(supernatant)]×100

[2] = system: B16/F0 murine melanoma cells; test: In-vitro tumor-cell uptake, melanoma cells; format: cell-based; settings: for decrease in cell uptake, incubation temperature from 37° C. to 4° C.: 4° C. vs 37° C.; for maximal cell uptake: 37° C., B16/F0 cell line
Method: as §1
In-Vitro Cell Studies. Murine B16/F0 melanoma cells and human MCF-7 breast cancer cells were obtained from American Type Culture Collection, Manassas Va., (ATCC) and were grown in T-175 flasks in 14 mL Dulbecco's Modified Eagle Medium (D-MEM; Gibco, Life Technology, Gaithersburg, Md.) containing 4500 mg/L D-glucose, L-glutamine, and pyridoxine hydrochloride, 110 mg/L sodium pyruvate, 10% fetal bovine serum (FBS), 0.2% gentamicin and 0.5% penicillin-streptomycin solution. All cells were harvested from cell culture flasks by trypsinization with 1 mL trypsin-EDTA solution (0.25% trypsin, 1 mM EDTA×4 Na) (Gibco). After being washed with 12 mL Dulbecco's Phosphate-Buffered Saline (PBS) (Gibco), pH 7.2 (Ca^2+- and Mg^2+-free; g/L KCl, 0.20; KH2PO4, 0.20; NaCl, 8.00; Na2HPO4, 1.15), the cells were counted and resuspended in 8 mL S-MEM (Gibco) (Ca^2+ free, with reduced Mg^2+ content) and stored at 4° C. until use.
For in-vitro tumor-cell accumulation studies, 5×10^6 cells in polypropylene test tubes were incubated at 37° C. or 4° C., with intermittent agitation with 1-2 μCi (5 μL) ^99mTc-complex Tc-(Compound A-D) in a total volume of 350 μL S-MEM. At appropriate time intervals the tubes were vortexed and 8-μL samples were layered on 350 μL cold FBS in a 400-μL Eppendorf microcentrifuge tube. After centrifugation at 15,000 rpm for 2 min, the tubes were frozen in a dry ice-acetone bath. While still frozen, the bottom tip of the microcentrifuge tube containing the cell pellet was cut and placed in a counting tube. The remaining portion of the tube with the supernatant was placed in a separate counting tube. Both fractions were counted for radioactivity in a γ-counter (WALLAC, 1480 WIZARD 3″™). The amount of supernatant in the cell pellet was determined to be <1% in separate experiments. The percentage cell uptake of the ^99mTc-complex was calculated as: % uptake=[cpm(pellet)]/[cpm(pellet)+cpm(supernatant)]×100

B16/F0 murine melanoma = test: In-vivo tumor uptake and biodistribution; parameters: species or system C57B16 mice; settings: mouse, in vivo
Method: In-Vivo Tumor Uptake. To study the tumor uptake of ^99mTc-complexes, Tc-(Compound A-D and J-K), in vivo, biodistribution experiments at 1 h and 6 h after their administration were carried out in C57B16 mice with palpable B16 melanoma nodules. The biodistribution data including melanoma/nontumor (M/NT) ratios for selected organs are summarized in Table 4 and 5 as percentage injected dose per gram ([…]).
Animal Studies. All animal experiments were performed in compliance with the Principles of Laboratory Animal Care (NIH publication #85-23, revised 1985). Biodistribution studies and tumor-uptake measurements were performed in C57B16 mice (15 to 20 g) bearing the B16/F0 murine melanoma on the hind limb. See for example the studies described in, which are hereby incorporated by reference, Brandau, W.; Niehoff, T.; Pulawski, P.; Jonas, M.; Dutschka, K.; Sciuk, J.; Coenen, H. H.; Schober, O. Structure Distribution Relationship of Iodine-123-Iodobenzamides as Tracers for the Detection of Melanotic Melanoma. J. Nucl. Med. 1996, 37, 1865-1871; Mohanmmed, A.; Nicholl, C.; Titsch, U.; Eisenhut, M. Radiojodinated N-(Alkylaminoalkyl)-Substituted 4-Methoxy-, 4-Hydroxy-, and 4-Aminobenzamides: Biological Investigations for the Improvement of Melanoma-Imaging Agents. Nucl. Med. Biol. 1997, 24, 373-380; Titsch, U.; Mohammed, A.; Wagner, S.; Oberdorfer, F.; Eisenhut, M. Syntheses of N-(2-Diethylaminoethyl)benzamides Suitable for ^99mTc Complexation. J. Labelled Compd. Radiopharm. 1997, 40, 416-418; Dittmann, H.; Coenen, H. H.; Zölzer, F.; Dutschka, K.; Brandau, W.; Streffer, C. In Vitro Studies on the Cellular Uptake of Melanoma Imaging Aminoalkyl-iodobenzamide Derivatives (ABA). Nucl. Med. Biol. 1999, 26, 51-56; and Michelot, J. M.; Moreau, M. F. C.; Veyre, A. J.; Bonafous, J. F.; Bacin, F. J.; Madelmont, J. C.; Bussiere, F.; Souteyrand, P. A.; Mauclaire, L. P.; Chossat, F. M.; Papon, J. M.; Labarre, P. G.; Kauffmann, Ph.; Plagne, R. J. Phase II Scintigraphic Clinical Trial of Malignant Melanoma and Metastases with Iodine-123-N-(2-Diethylaminoethyl 4-Iodobenzamide). J. Nucl. Med. 1993, 34, 1260-1266. The tumor cells (B16/F0), obtained from ATCC, were washed with PBS and transplanted subcutaneously on the left hind flank by an inoculation of 0.5×10^6 cells (0.1 mL). Ten to 14 days later the animals developed palpable tumor nodules 3 to 5 mm in diameter. The biodistribution studies were carried out by tail-vein injection of 25 to 30 μCi (0.05 to 0.1 mL) of the ^99mTc-labeled complexes Tc-(Compound A-D, H, J, K or M). At the designated time after tail-vein administration, the animals were weighed and sacrificed. The organs and tumors were harvested and, when appropriate, blotted dry, weighed, and counted in a gamma counter along with technetium-99m standards of the injected dose. The results are expressed as % ID/g tissue (Table 4 and 5)

[3] = Determination of lipophilicity and pKa values by HPLC; format: physicochemical; settings: HPLC method
Method: The physicochemical parameters of the rhenium complexes, i.e. lipophilicity log P, log D(pH 7.4), and pKa (Table 2) were determined using HPLC methods (Braumann, T.; Grimme, L. H. Determination of Hydrophobic Parameters for Pyridazinone Herbicides by Liquid-Liquid Partition and Reversed-Phase High-Performance Liquid Chromatography. J. Chromatogr. 1981, 206, 7-15; Stytli, C.; Theobald, A. E. Determination of Ionization Constants of Radiopharmaceuticals in Mixed Solvents by HPLC. Appl. Radiat. Isot., 1987, 38, 701-708; Johannsen, B.; Scheunemann, M.; Spies, H.; Brust, P.; Wober, J.; Syhre, R.; Pietzsch, H.-J. Technetium(V) and Rhenium(V) Complexes for 5-HT2A Serotonin Receptor Binding: Structure-Affinity Considerations. Nucl. Med. Biol., 1996, 23, 429-438; and Johannsen, B.; Berger, R.; Brust, P.; Pietzsch, H.-J; Scheunemann, M.; Seifert, S.; Spies, H.; Syhre, R. Structural Modification of Receptor-Binding Technetium-99m Complexes in Order to Improve Brain Uptake. Eur. J. Nucl. Med. 1997, 24, 316-319). […] Since log D(pH 7.4) is a composite measure of log P and pKa, the log D(PH 7.4) of Re-Compound B (1.9) is also higher than that of Re-Compound A (1.1). […] With pKa values >9 for complexes Re-Compound C and Re-Compound D, the resulting low log D(PH 7.4) values of −0.5 (Re-Compound C) and 0.7 (Re-Compound D) are not surprising, since the complexes would exist in a protonated form at pH 7.4.
Determination of Lipophilicity and pKa Values. The lipophilicity and pKa values of all complexes were determined using HPLC methods described previously (Stylli, C.; Theobald, A. E. Determination of Ionization Constants of 4 Radiopharmaceuticals in Mixed Solvents by HPLC. Appl. Radiat. Isot., 1987, 38, 701-708; Johannsen, B.; Scheunemann, M.; Spies, H.; Brust, P.; Wober, J.; Syhre, R.; Pietzsch, H.-J. Technetium(V) and Rhenium(V) Complexes for 5-HT2A Serotonin Receptor Binding: Structure-Affinity Considerations. Nucl. Med. Biol., 1996, 23, 429-438; and Johannsen, B.; Berger, R.; Brust, P.; Pietzsch, H.-J.; Scheunemann, M.; Seifert, S.; Spies, H.; Syhre, R. Structural Modification of Receptor-Binding Technetium-99m Complexes in Order to Improve Brain Uptake. Eur. J. Nucl. Med. 1997, 24, 316-319). […] The mobile phase was acetonitrile:phosphate buffer (0.01 M), 3:1, v/v, with the aqueous buffer adjusted to the desired pH between 3 and 11. The capacity factor (k′) was calculated for each determination (Braumann, T.; Grimme, L. H. Determination of Hydrophobic Parameters for Pyridazinone Herbicides by Liquid-Liquid Partition and Reversed-Phase High-Performance Liquid Chromatography. J. Chromatogr. 1981, 206, 7-15; El Tayer, N.; van der Waterbeemd, H.; Testa, B. Lipophilicity Measurements of Protonated Basic Compounds by Reversed-Phase High-Performance Liquid Chromatography. II. Procedure for the Determination of a Lipophilic Index Measured by Reversed-Phase High Performance Liquid Chromatography. J. Chromatogr. 1985, 320, 305-312; and Minick, D. J.; Frenz, J. H.; Patrick, M. A.; Brent, D. A. A Comprehensive Method for Determining Hydrophobicity Constants by Reversed-Phase High-Performance Liquid Chromatography. J. Med. Chem., 1988, 31, 1923-1933) and the partition coefficient at a given pH (D or log D) were calculated from the equation: log D=a log k′+b where the parameters a and b are predetermined using standard amines. The fitted points of inflection from the sigmoidal DHPLC/pH profiles permit calculation of the pKHPLC(Stylli, C.; Theobald, A. E. Determination of Ionization Constants of Radiopharmaceuticals in Mixed Solvents by HPLC. Appl. Radiat. Isot., 1987, 38, 701-708). The aqueous ionization constants pKa were calculated from the pKHPLC values after correction with a predetermined correction factor obtained using standard amine compounds. Log P values of the neutral complexes were estimated from the respective upper plateau of the sigmoidal log D/pH curve in the alkaline range.

Compound: CCN(CC)CCN1CC[S][Re]2(=[O])[S]CC[N]2C(=O)C1 (centres unmarked) [Re-Compound A, [ReOAADT]-C2—NEt2]
log P [3]: 1.6
pKa [3]: 7.7
log D(pH 7.4) [3]: 1.1

Compound: CCN(CC)CCN1CC[S][Tc]2(=[O])[S]CC[N]2C(=O)C1 (centres unmarked) [Tc-(Compound A)]
IC50 (B16/F0 cells): 21 µM

Compound: CCCCN(CCCC)CCCN1CC[S][99Tc]2(=[O])[S]CC[N]2C(=O)C1 (centres unmarked) [Tc-(Compound D)]
lower tumor-cell uptake after pre-incubation with DTG (B16/F0 cells): 32%
decrease in cell uptake, incubation temperature from 37° C. to 4° C. [2]: 23%
maximal cell uptake [2]: 68%

Compound: CCCCN(CCCC)CCCN1CC[S][Re]2(=[O])[S]CC[N]2C(=O)C1 (centres unmarked) [Re-Compound D, [ReOAADT]-C3—NBu2]
log D(pH 7.4) [3]: 0.7

Now from value to compound, other results behind:

mel/blood ratio (B16/F0 murine melanoma): 19
mel/lung ratio (B16/F0 murine melanoma): 12.7
mel/spleen ratio (B16/F0 murine melanoma): 19
Compound: CCN(CC)CCCN1CC[S][99Tc]2(=[O])[S]CC[N]2C(=O)C1 (centres unmarked) [Tc-(Compound C)]
lower tumor-cell uptake after pre-incubation with DTG (B16/F0 cells): 33%
maximum cell uptake [1]: 17%
decrease in cell uptake, incubation temperature from 37° C. to 4° C. [2]: 77%
maximal cell uptake [2]: 62%

IC50 (B16/F0 cells): 52 µM
Compound: CCCCN(CCCC)CCCN1CC[S][Tc]2(=[O])[S]CC[N]2C(=O)C1 (centres unmarked) [Tc-(Compound D)]

log P [3]: 3.3
pKa [3]: 7.7
log D(pH 7.4) [3]: 1.9
Compound: CCCCN(CCCC)CCN1CC[S][Re]2(=[O])[S]CC[N]2C(=O)C1 (centres unmarked) [Re-Compound B, [ReOAADT]-C2—NBu2]

IC50 (B16/F0 cells): 49 µM
Compound: CCN(CC)CCCN1CC[S][Tc]2(=[O])[S]CC[N]2C(=O)C1 (centres unmarked) [Tc-(Compound C)]
